Experimental data as given in publication PMC10721329, “Quisinostat is a brain-penetrant radiosensitizer in glioblastoma” (JCI Insight, 2023).
“And” between values parts separate entries of the source, which are not always exact repeats. Equal entries are not always repeated.

How the values were obtained:
BT145 cells = assay: Intracellular uptake of QST and level in media, with or without washout (LC-MS/MS); format: cell-based, human
Procedure: To further understand the kinetics of drug-target engagement in GSCs, we harvested media and BT145 cells at 0, 2, 6, 10, and 24 hours with or without removal of QST (75 nM). At each time point, we measured the intracellular drug levels and concentrations in the cell media. With continuous drug exposure (no washout), the intracellular levels of QST in BT145 increased throughout the incubation period, reaching equilibrium by 10 hours (Supplemental Figure 2A). […] By contrast, in washout experiments (performed 2 hours after spiking cell media with the drug), minimal QST levels were measured intracellularly after drug removal at all time points (Supplemental Figure 2B).
QST concentrations in specimens were measured using reverse-phase LC on the AB SCIEX QTRAP6500+ LC-MS/MS system by operating electrospray in the positive ion mode. For liquid chromatographic separation, gradient elution was performed using a Phenomenex Kinetex F5 100 Å column (100 × 2.1 mm, 2.6 μm). The initial composition of the mobile phase was 70% phase A (0.1% formic acid in water) and 30% phase B (0.1% formic acid in 1:1 acetonitrile/methanol) with a 0.35 mL/min flow rate. Gradient elution was achieved as follows: mobile phase (B) was maintained at 30% from 0 to 0.3 minutes, increased to 95% from 0.3 to 0.8 minutes, maintained at 95% from 0.8 to 2.5 minutes, and decreased to 30% from 2.5 to 2.8 minutes. The total run time was 3.5 minutes. The internal standard used in this study was D8-infigratinib. The retention times for QST and D8-infigratinib were 1.6 and 1.8 minutes, respectively. Mass-to-charge ratio transitions were as follows: 395.20 → 144.00 (QST) and 568.08 → 321.00 (D8-infigratinib). LC-MS/MS analysis was performed using an Analyst 1.7 Chromatographic Data System. See Supplemental Methods for detailed PK experiments. […]
Cell Media and Lysate Sample Preparation
Cell media and lysates were thawed at room temperature. An aliquot of 20 µL of cell media or lysate was transferred into a micro centrifuge tube followed by protein precipitation with 60 µL of IS-containing methanol precipitation solution. The mixture was vortex-mixed for 10 s and centrifuged at 12000 g at 4 °C for 10 min. A 50-µL aliquot of the supernatant was transferred to an autosampler vial, and 5 µL was injected into the LC-MS/MS system for […]

[1] = Stability in mouse plasma at 37°C; format: in vitro ADME; details: for [QST] mouse plasma at 37C, raw response / [QST], % of control: replicates; for [QST], % of control: mouse plasma
Procedure: Hydroxamic acid–based compounds have been reported to display poor stability and high plasma clearance due to the presence of arylesterases and carboxylesterases in rodent blood ([34]). Therefore, we measured the stability of QST in mouse plasma and brain to determine whether drug degradation occurred during our sample preparations and equilibrium dialyses for the determination of unbound drug level (performed at 37°C). […] QST degradation was also observed in mouse brain homogenate (Figure 6B). However, perfusion of mice before brain collection prevented rapid drug degradation in the brain matrix. […] Degradation of QST can also be constrained if plasma and brain samples are processed at 4°C (Supplemental Figure 4A). All subsequent sample preparations were therefore performed on ice-cold baths to avoid degradation of QST in our PK analyses. […] The observed stability is probably due to the absence of esterases in human matrices, which are responsible for degradation of QST ([34]). Because we employed QST in several in vitro studies (Figures 1–4), the stability of the molecule was also tested in the cell media used to culture GSCs (neurobasal medium; see Methods).
Stability Study in Mouse Plasma, Mouse Brain, Human Plasma, Human Brain, and Neural […]
The stability of QST was determined in BALB/c mouse plasma, male nude athymic perfused and nonperfused mouse brain homogenate (1:9 w/v of PBS; pH 7.4), human brain (obtained from VRL Eurofins) homogenate (1:4 w/v of PBS; pH 7.4), pooled human plasma (Innovative Research), and neurobasal media. QST stock solutions (1 mM) were prepared in acetonitrile, subsequently diluted in a 40% methanol mixture, and added t o the matrices to make […]
[…] Then 50 or 30 µL of either plasma or brain homogenate containing QST were aliquoted into 1.5-mL microcentrifuge tubes (Eppendorf) and were incubated at either 4 °C or 37 °C for 0, 2, 4, 6, 12, or 24 hours (n = 3 at each time point).
The stability of QST in mouse plasma was also tested at 0, 2, 8, 16, or 24 hours (n = 3 at each time point) in the presence of esterase inhibitors: 0.25 mM BNPP, 1mM dithiobis(2-nitrobenzoic acid) (DTNB), or 1.25 mM phenylmethylsulfonyl fluoride (PMSF). Plasma and brain homogenate samples were stored at −80 °C until LC-MS/MS analysis. […]

[2] = cited from earlier work

For `Cn1cc(CNCC2CCN(c3ncc(C(=O)NO)cn3)CC2)c2ccccc21` [QST, quisinostat], the “time to equilibrium of intracellular QST level” value (BT145 cells; BT145, 75 nM QST, continuous exposure) was at most 10 h, the “Average Cell uptake” value (BT145 cells; no washout, 2 hrs) was 7.31 nmol/g protein and the Media (BT145 cells; no washout, 2 hrs) was 62.85 nM. The “Media at cell collection” value (BT145 cells; no washout, 2 hrs) was 52.25 nM, the “Average Cell uptake” value (BT145 cells; no washout, 6 hrs) was 10.61 nmol/g protein and the Media (BT145 cells; no washout, 6 hrs) was 67.45 nM. For the same compound, the “Media at cell collection” value (BT145 cells; no washout, 6 hrs) was 45.30 nM, the “Average Cell uptake” value (BT145 cells; no washout, 10 hrs) was 11.62 nmol/g protein and the Media (BT145 cells; no washout, 10 hrs) was 65.15 nM. The “Media at cell collection” value (BT145 cells; no washout, 10 hrs) was 39.70 nM, the “Average Cell uptake” value (BT145 cells; no washout, 24 hrs) was 11.78 nmol/g protein and the Media (BT145 cells; no washout, 24 hrs) was 64.10 nM. The “Media at cell collection” value (BT145 cells; no washout, 24 hrs) was 30.75 nM, the “Average Cell uptake” value (BT145 cells; with washout, 0 hrs) was 7.31 nmol/g protein and the Media (BT145 cells; with washout, 0 hrs) was 62.85 nM. The “Media at cell collection” value (BT145 cells; with washout, 0 hrs) was 52.25 nM, the “Average Cell uptake” value (BT145 cells; with washout, 2 hrs) was 2.58 nmol/g protein and the Media (BT145 cells; with washout, 2 hrs) was 64.35 nM. For the same compound, the “Media at cell collection” value (BT145 cells; with washout, 2 hrs) was 3.665 nM, the “Average Cell uptake” value (BT145 cells; with washout, 6 hrs) was 3.23 nmol/g protein and the Media (BT145 cells; with washout, 6 hrs) was 63.40 nM. For the same compound, the “Media at cell collection” value (BT145 cells; with washout, 6 hrs) was 5.31 nM, the “Average Cell uptake” value (BT145 cells; with washout, 10 hrs) was 2.72 nmol/g protein and the Media (BT145 cells; with washout, 10 hrs) was 66.40 nM. For the same compound, the “Media at cell collection” value (BT145 cells; with washout, 10 hrs) was 5.605 nM, the “Average Cell uptake” value (BT145 cells; with washout, 24 hrs) was 3.95 nmol/g protein and the Media (BT145 cells; with washout, 24 hrs) was 58.55 nM. The “Media at cell collection” value (BT145 cells; with washout, 24 hrs) was 3.57 nM, the “[QST] mouse plasma at 37C, raw response, Average” value (“[QST] mouse plasma … Average” below) ([1]; 500 nM, Time 0) was 1.911 and the “[QST] mouse plasma at 37C, raw response” value ([1]; 500 nM, Time 0) was 1.823 and 1.9096 and 2.002. For the same compound, the “[QST] mouse plasma … Average” value ([1]; 500 nM, Time 1) was 0.7582, the “[QST] mouse plasma at 37C, raw response” value ([1]; 500 nM, Time 1) was 0.7296 and 0.7817 and 0.7634 and the “[QST] mouse plasma … Average” value ([1]; 500 nM, Time 2) was 0.2892. For the same compound, the “[QST] mouse plasma at 37C, raw response” value ([1]; 500 nM, Time 2) was 0.2668 and 0.314 and 0.2868, the “[QST] mouse plasma … Average” value ([1]; 500 nM, Time 4) was 0.02578 and the “[QST] mouse plasma … Average” value ([1]; 500 nM, Time 8) was 0.00189. For the same compound, the “[QST] mouse plasma at 37C, raw response” value ([1]; 500 nM, Time 8) was 0.00167 and 0.04867 and 0.00211, the half-life ([1]; BALB/c, mouse, plasma, 37°C, 8-hour incubation) was about 1 h and the “[QST] mouse plasma at 37C, raw response” value ([1]; Time 4) was 0.02689 and 0.02585 and 0.0246. For the same compound, the “[QST], % of control” value ([1]; 10 nM, Time 6 hrs) was 2.9% and 3.1% (2×), the “[QST], % of control” value ([1]; 10 nM, Time 12 hrs) was 2.6% and 2% and 2.1% and the “[QST], % of control” value ([1]; 100 nM, Time 6 hrs) was 1.4% (2×) and 1.3%. The “[QST], % of control” value ([1]; 100 nM, Time 12 hrs) was 0.1% (2×) and 2.5%, the maximum-tolerated dose ([2]; patients, given 3 times weekly) was 12 mg and the “hematologic toxicities (grade 1 and 2), share of patients” value ([2]; phase I trials) was under 5%.
